{"source": "patent US20220233652A1", "about": "“Pharmaceutical Compositions Comprising Integration-Promoting Peptides” (priority 2018, published 2022)", "key": {"[1]": {"experiment": "INS HCl solubility and stability in isotonic buffers of different pH (5 mg/ml in buffer, diluted to 1 mg/ml, LC-MS)", "assay_type": "physicochemical", "procedure": "Analytical HPLC-MS was performed using an Agilent 1260 series Liquid Chromatograph/Mass Selective Detector (MSD, Single Quadrupole) equipped with an electrospray interface and a UV diode array detector. Analyses were performed on an ACE C8, 50×3.0 mm, 3 μm column, with an isocratic 0.1% formic acid/ACN (19%) eluent, at a rate of 1 ml/min over a period of 5 minutes. UV absorption was measured at 220 nm and 215-395 nm. MS analysis was performed with ESI (electron spray ionization) with a positive ionization method. PBS isotonic buffer was prepared from 1 tablet of Sigma Phosphate buffer saline P4417, in 200 ml of deionized water (according to product reconstitution instructions). Acetate isotonic buffers were prepared from sodium acetate/acetic acid in water in 150 mM concentration. NaOH 50% solution was used to adjust the pH. NaOAc solution was prepared by dissolving 1.23 gr in 100 ml water. Acetic acid solution was prepared by adding 945 μl of acetic acid to 100 ml water. […] The samples were further diluted to 1 mg/ml before analyzing by HPLC. The samples were prepared by dilution of 80 μl of reaction solution with 320 μl of MeOH. Each sample was filtered through PTFE 0.45 um filter vial. The samples were run in LC-MS and data used for calculation concentration in buffer. All injections for stability assay were performed using 20 μl due to low peak intensity with 2 μl. Final concentration was calculated accordingly."}, "[2]": {"system": "PANC-1 human pancreatic cancer cells", "experiment": "Pancreatic cancer tumor mice model", "assay_type": "in vivo, athymic nude mice", "conditions": "day 17", "procedure": "Two models of cancer were generated: lung cancer and pancreatic cancer. About 5×10^6 of 1975 human lung cancer cells per 0.1 ml PBS per mouse were injected to male 7 weeks old athymic nude mice (n=30). The cells were injected, subcutaneously at one site on the back of the mice. About 5×10^6 PANC-1 human pancreatic cancer cells per 0.1 ml PBS per mouse were injected to male 7 weeks old athymic nude mice (n=22). The cells were injected, subcutaneously at one site on the back of the mice. When tumors were palpable (˜0.3-0.5 cm^3), the mice were randomly divided into three groups (Table 27) and the viruses and/or peptides were injected, twice a week for two weeks.\n(§1) The first day of the study was defined as ‘Day 1’. The animals were administrated IP with either Vehicle (PBS or Formulation), lentiviral particles and SC with test items according to Table 27 on days 1, 4, 8 and 11. Body weight and tumor volume were checked on days 3, 7, 11, 14 and 17 (the latter was measured with a caliper). At the end of the experiment, on day 17, the mice were anesthetized and then sacrificed, and the tumors were removed, as well as lung, spleen, kidney and liver."}, "[3]": {"experiment": "Mortality, body weight and safety in tumor mice models", "assay_type": "in vivo, athymic nude mice", "conditions": "lung and pancreatic cancer models", "procedure": "• 1. Mortality—every day • 2. Tumor measurements—twice a week • 3. Tumor weight post mortem • 4. Tissue preservation—kept in formalin or were snap freezed and kept at −80° C.\nas §1"}, "HIV-1": {"system": "HIV-1", "procedure": "This is a phase I/IIa pilot—Proof of Concept, dose escalation study.\nThree cohorts of 3-6 patients (per cohort) received twice a week the Multiple Ascending Doses (MAD*) for up to 8 weeks to evaluate safety, clinical dose and preliminary efficacy for a duration of up to 6 weeks. Interim analysis was performed to decide on the safety of the low dose and continue to a higher dose SC administration. Study Duration: 1 year including screening, treatment and post treatment follow up\nCohort 1: Three to six (3-6) patients, each one received twice a week the decided MAD* for up to 8 weeks (up to 16 doses per patient). Subcutaneous dose: LOW; 0.05, mg/kg, with escalation to 0.2 mg/kg body weight at week 2-4. Cohort 2: Three to six (3-6) patients, each one received twice a week the decided MAD* for up to 8 weeks (up to 16 doses per patient). Subcutaneous dose: MEDIUM; 0.1 mg/kg, with escalation to 0.3 mg/kg body weight at week 2-4. Cohort 3: Three to six (3-6) patients, each one received twice a week the decided MAD* for up to 8 weeks (up to 16 doses per patient). Subcutaneous dose: HIGH; 0.2 mg/kg, with escalation to 0.4 mg/kg body weight at week 2-4. Interim analysis was performed to decide on the safety of all cohorts' doses and continue to a higher dose, up to 0.2 mg/kg for Cohort 1, up to 0.3 mg/kg for Cohort 2 and up to 0.4 mg/kg for Cohort 3, SC administration.\nEffectiveness of Gammora assessed by reduced Viral load (by 0.5 LOG; Viral Suppression). • 1. Mean Change in CD4+ Cell Count as a Measure of Efficacy and Safety. • 2. Reduced viral protein p24 antigen. • 3. Functional Assessment of HIV Infection (FAHI) questionnaire."}, "[4]": {"conditions": "PBS buffer pH 7.4, at 5° C. and at 25° C., 0 hours"}, "[5]": {"conditions": "acetate buffer pH 4, 5° C., 0 hours"}, "[6]": {"conditions": "acetate buffer pH 4, 5° C., 24 hours"}, "[7]": {"conditions": "acetate buffer pH 4, 5° C., 168 hours"}, "[8]": {"conditions": "acetate buffer pH 4, 25° C., 0 hours"}, "[9]": {"conditions": "acetate buffer pH 4, 25° C., 24 hours"}, "[10]": {"conditions": "acetate buffer pH 4, 25° C., 168 hours"}, "[11]": {"conditions": "acetate buffer pH 6, 5° C., 0 hours"}, "[12]": {"conditions": "acetate buffer pH 6, 5° C., 24 hours"}, "[13]": {"conditions": "acetate buffer pH 6, 5° C., 168 hours"}, "[14]": {"conditions": "acetate buffer pH 6, 25° C., 0 hours"}, "[15]": {"conditions": "acetate buffer pH 6, 25° C., 24 hours"}, "[16]": {"conditions": "acetate buffer pH 6, 25° C., 168 hours"}, "[17]": {"conditions": "5 weeks INS 0.2-0.4 mg/kg SC twice a week + lopinavir 800 mg plus ritonavir 200 mg daily"}}, "note": "Read-outs that look alike come from different tables or passages of the source."}
{"sequence": "WTAVQMAVFIHNFKRK [INS]", "values": [{"measurement": "Area", "setting": "[1]; [4]", "result": 201.90, "unit": "mAU*S"}, {"measurement": "Assay %", "setting": "[1]; [4]", "result": 2.91, "unit": "%"}, {"measurement": "Concentration calculated from LC-MS data", "setting": "[1]; [4]", "result": 30, "unit": "µg/mL"}, {"measurement": "Area", "setting": "[1]; PBS buffer pH 7.4, at 5° C. and at 25° C., 24 hours", "result": "Not observed"}, {"measurement": "Area", "setting": "[1]; PBS buffer pH 7.4, at 5° C. and at 25° C., 168 hours", "result": "Not observed"}, {"measurement": "Solubility in PBS buffer pH 7.4", "setting": "[1]; a white precipitate was observed", "result": "no solubility at all"}, {"measurement": "Assay %", "setting": "[1]; [5]", "result": 66.84, "unit": "%"}, {"measurement": "Concentration calculated from LC-MS data", "setting": "[1]; [5]", "result": 646, "unit": "µg/mL"}, {"measurement": "Assay %", "setting": "[1]; [6]", "result": 62.32, "unit": "%"}, {"measurement": "Concentration calculated from LC-MS data", "setting": "[1]; [6]", "result": 602, "unit": "µg/mL"}, {"measurement": "Assay %", "setting": "[1]; [7]", "result": 62.00, "unit": "%"}, {"measurement": "Concentration calculated from LC-MS data", "setting": "[1]; [7]", "result": 599, "unit": "µg/mL"}, {"measurement": "Assay %", "setting": "[1]; [8]", "result": 66.87, "unit": "%"}, {"measurement": "Concentration calculated from LC-MS data", "setting": "[1]; [8]", "result": 646, "unit": "µg/mL"}, {"measurement": "Assay %", "setting": "[1]; [9]", "result": 66.25, "unit": "%"}, {"measurement": "Concentration calculated from LC-MS data", "setting": "[1]; [9]", "result": 640, "unit": "µg/mL"}, {"measurement": "Assay %", "setting": "[1]; [10]", "result": 36.75, "unit": "%"}, {"measurement": "Concentration calculated from LC-MS data", "setting": "[1]; [10]", "result": 355, "unit": "µg/mL"}, {"measurement": "Assay %", "setting": "[1]; [11]", "result": 73.49, "unit": "%"}, {"measurement": "Concentration calculated from LC-MS data", "setting": "[1]; [11]", "result": 729, "unit": "µg/mL"}, {"measurement": "Assay %", "setting": "[1]; [12]", "result": 53.43, "unit": "%"}, {"measurement": "Concentration calculated from LC-MS data", "setting": "[1]; [12]", "result": 530, "unit": "µg/mL"}, {"measurement": "Assay %", "setting": "[1]; [13]", "result": 44.15, "unit": "%"}, {"measurement": "Concentration calculated from LC-MS data", "setting": "[1]; [13]", "result": 438, "unit": "µg/mL"}, {"measurement": "Assay %", "setting": "[1]; [14]", "result": 73.49, "unit": "%"}, {"measurement": "Concentration calculated from LC-MS data", "setting": "[1]; [14]", "result": 729, "unit": "µg/mL"}, {"measurement": "Assay %", "setting": "[1]; [15]", "result": 52.42, "unit": "%"}, {"measurement": "Concentration calculated from LC-MS data", "setting": "[1]; [15]", "result": 520, "unit": "µg/mL"}, {"measurement": "Assay %", "setting": "[1]; [16]", "result": 21.98, "unit": "%"}, {"measurement": "Concentration calculated from LC-MS data", "setting": "[1]; [16]", "result": 218, "unit": "µg/mL"}, {"measurement": "Assay at time zero", "setting": "[1]; acetate buffers pH 4 and pH 6", "result": "about 70%"}, {"measurement": "Stability at 5° C. versus 25° C.", "setting": "[1]; acetate buffers pH 4 and pH 6", "result": "better stability at 5 °C compared to the samples at 25 °C"}, {"measurement": "Reduction of weight of tumors relative to control", "setting": "[2]; lentiviral particles + INS 1.25 mg/kg SC", "result": 25, "unit": "%"}, {"measurement": "Reduction of weight of tumors relative to control", "setting": "[2]; lentiviral particles + INS 2.5 mg/kg SC", "result": 50, "unit": "%"}, {"measurement": "Mortality", "setting": "[3]; 17 days", "result": "No animal was found dead or in morbid state"}, {"measurement": "Body weight", "setting": "[3]; mice gained weight as expected", "result": "no differences between groups"}, {"measurement": "HIV-1 RNA count", "setting": "HIV-1; [17]", "result": "below 300 copies/mL"}, {"measurement": "Reduction in viral load from baseline", "setting": "HIV-1; [17]", "result": "up to 99%"}, {"measurement": "Reduction in viral load from baseline", "setting": "HIV-1; most patients, first 5 weeks of SC administration, INS alone", "result": "up to 90%"}]}
